The source of these data is publication PMC11302729, “Repurposing Hsp90 inhibitors as antimicrobials targeting two-component systems identifies compounds leading to loss of bacterial membrane integrity” (Microbiology Spectrum, 2024).

≈ marks a conversion by molar mass, not a printed value. Where “and” joins values, the source holds several entries; their conditions need not be identical. Equal values may be shown once.

A word on the MIC: it is the smallest concentration in the dilution series that meets the test's criterion for growth inhibition. What is called CC50 is the concentration giving 50% cytotoxicity. Read a high CC50 as lower toxicity to the cells.

The test system of one data set is Escherichia coli ATCC 25922. Put plainly: MIC (microdilution) against E. coli. The class given is cell-based. The conditions noted are these: Escherichia coli, ATCC25922, read-out: MIC E. coli. The procedure, abridged: (§1)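 EUCAST broth microdilution in Mueller-Hinton broth, twofold compound dilutions from 50 to 0.39 µg/mL, inoculum a 1:100 dilution of overnight culture. Incubated 18 h at 37°C; MIC taken as lowest concentration with no growth by OD600.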
For the compound `COc1ccc(-c2c(C(F)(F)F)n[nH]c2-c2ccc(O)cc2O)cc1` [DPP-12], the MIC is greater than 250 µg/mL.

As to `COc1ccc(-c2c(C(F)(F)F)n[nH]c2-c2ccc(OC)cc2O)cc1` [DPP-13], the minimum inhibitory concentration (MIC) is greater than 250 µg/mL.

Still in this data set, the particulars now being: Escherichia coli, ATCC25922; Table 1; read-out: MIC E. coli.
With `COc1ccc(-c2[nH]nc(C(F)(F)F)c2-c2ccccc2)c(O)c1` [DPP-2], the MIC was greater than 250 µg/mL.

Still in this data set, the particulars now being: Table ST1.
Take `COc1ccc(-c2c(C(F)(F)F)n[nH]c2-c2ccc(O)cc2O)cc1` [DPP-12]: the “MIC E. coli” value was greater than 250 µg/mL.

Consider `COc1ccc(-c2[nH]nc(C(F)(F)F)c2-c2ccccc2)c(O)c1` [DPP-2], for which the “MIC E. coli” value is greater than 250 µg/mL.

As to `COc1ccc(-c2c(C(F)(F)F)n[nH]c2-c2ccc(OC)cc2O)cc1` [DPP-13], the “MIC E. coli” value was greater than 250 µg/mL.

The test system of the next data set is Enterococcus faecalis vanA (strain E0155). Put plainly: MIC (microdilution) against E. faecalis. It is filed as cell-based. The conditions noted are these: Enterococcus faecalis, read-out: MIC E. faecalis. A digest of the protocol:
as §1
In general terms: Broth dilution looks for growth in wells or tubes with falling amounts of substance.
Regarding `COc1ccc(-c2c(C(F)(F)F)n[nH]c2-c2ccc(O)cc2O)cc1` [DPP-12], the MIC is 50 µg/mL (≈ 143 µM).

For `COc1ccc(-c2[nH]nc(C(F)(F)F)c2-c2ccccc2)c(O)c1` [DPP-2], the minimal inhibitory concentration (MIC) amounted to 25 µg/mL (≈ 74.8 µM).

For the compound `COc1ccc(-c2c(C(F)(F)F)n[nH]c2-c2ccc(OC)cc2O)cc1` [DPP-13], the MIC came to 25 µg/mL (≈ 68.6 µM).

Staying with this data set, now noted: Table ST1.
In the case of `COc1ccc(-c2c(C(F)(F)F)n[nH]c2-c2ccc(O)cc2O)cc1` [DPP-12], the “MIC E. faecalis” value was 50 µg/mL (≈ 143 µM).

Regarding `COc1ccc(-c2[nH]nc(C(F)(F)F)c2-c2ccccc2)c(O)c1` [DPP-2], the “MIC E. faecalis” value came out at 25 µg/mL (≈ 74.8 µM).

As for `COc1ccc(-c2c(C(F)(F)F)n[nH]c2-c2ccc(OC)cc2O)cc1` [DPP-13], the “MIC E. faecalis” value was found to be 25 µg/mL (≈ 68.6 µM).

The next data set has as its system Staphylococcus aureus str. Newman. Put plainly: Minimal inhibitory concentration (microdilution) against S. aureus. The settings on record: Staphylococcus aureus, NEWMAN; Fig 2. It is filed as cell-based. The procedure, abridged:
as §1
Regarding `COc1ccc(-c2c(C(F)(F)F)n[nH]c2-c2ccc(O)cc2O)cc1` [DPP-12], the MIC stood at 12.5 µg/mL.

`COc1ccc(-c2[nH]nc(C(F)(F)F)c2-c2ccccc2)c(O)c1` [DPP-2] showed an MIC of 12.5 µg/mL.

The compound `COc1ccc(-c2c(C(F)(F)F)n[nH]c2-c2ccc(OC)cc2O)cc1` [DPP-13] gave a minimal inhibitory concentration (MIC) of 12.5 µg/mL.

Still in this data set, the particulars now being: Staphylococcus aureus, NEWMAN; Fig 2, value in parentheses.
`COc1ccc(-c2c(C(F)(F)F)n[nH]c2-c2ccc(O)cc2O)cc1` [DPP-12]: the MIC came out at 35.7 µM.

As for `COc1ccc(-c2[nH]nc(C(F)(F)F)c2-c2ccccc2)c(O)c1` [DPP-2], the minimum inhibitory concentration (MIC) is 37.3 µM.

Turning to `COc1ccc(-c2c(C(F)(F)F)n[nH]c2-c2ccc(OC)cc2O)cc1` [DPP-13], the MIC was determined as 34.3 µM.

Still in this data set, the particulars now being: Table ST3.
Turning to `COc1ccc(-c2c(C(F)(F)F)n[nH]c2-c2ccc(O)cc2O)cc1` [DPP-12], the “MIC S. aureus” value is 12.50 µg/mL (≈ 35.7 µM).

As for `COc1ccc(-c2[nH]nc(C(F)(F)F)c2-c2ccccc2)c(O)c1` [DPP-2], the “MIC S. aureus” value was found to be 12.50 µg/mL (≈ 37.4 µM).

Consider `COc1ccc(-c2c(C(F)(F)F)n[nH]c2-c2ccc(OC)cc2O)cc1` [DPP-13], for which the “MIC S. aureus” value was 12.50 µg/mL (≈ 34.3 µM).

The data set is the same for the next values; noted with them: Table ST3, value in parentheses.
With `COc1ccc(-c2c(C(F)(F)F)n[nH]c2-c2ccc(O)cc2O)cc1` [DPP-12], the MIC is listed as 35.71 µM.

As for `COc1ccc(-c2[nH]nc(C(F)(F)F)c2-c2ccccc2)c(O)c1` [DPP-2], the minimal inhibitory concentration (MIC) came to 37.3 µM.

Take `COc1ccc(-c2c(C(F)(F)F)n[nH]c2-c2ccc(OC)cc2O)cc1` [DPP-13]: the MIC was determined as 34.34 µM.

The test system of the next data set is S. aureus str. Newman. The experiment in a line: Membrane permeability using SYTOX-Green, flow cytometry. The settings on record: 0.5× MIC, 5 min exposure. The class given is cell-based. The procedure, abridged:
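Exponential-phase cells (OD600 0.4) in MHB were exposed to compound, pelleted into PBS, and stained with 0.5 µM SYTOX Green for 5 min in the dark. After washing off unbound dye, uptake was read by flow cytometry in the FITC channel, 488 nm excitation. Nisin and novobiocin served as positive and negative permeabilization controls.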
`COc1ccc(-c2c(C(F)(F)F)n[nH]c2-c2ccc(O)cc2O)cc1` [DPP-12]: the “% FITC stained bacteria 0.5 xMIC” value came out at 9.04%.

In the case of `COc1ccc(-c2[nH]nc(C(F)(F)F)c2-c2ccccc2)c(O)c1` [DPP-2], the “% FITC stained bacteria 0.5 xMIC” value came to 49.81%.

On to `COc1ccc(-c2c(C(F)(F)F)n[nH]c2-c2ccc(OC)cc2O)cc1` [DPP-13], for which the “% FITC stained bacteria 0.5 xMIC” value stood at 35.10%.

The same data set, now with this note: 1× MIC, 5 min exposure.
With `COc1ccc(-c2c(C(F)(F)F)n[nH]c2-c2ccc(O)cc2O)cc1` [DPP-12], the “% FITC stained bacteria 1 xMIC” value worked out at 24.16%.

For the compound `COc1ccc(-c2[nH]nc(C(F)(F)F)c2-c2ccccc2)c(O)c1` [DPP-2], the “% FITC stained bacteria 1 xMIC” value worked out at 54.03%.

Consider `COc1ccc(-c2c(C(F)(F)F)n[nH]c2-c2ccc(OC)cc2O)cc1` [DPP-13], for which the “% FITC stained bacteria 1 xMIC” value stood at 45.40%.

The data set is the same for the next values; noted with them: 2× MIC, 5 min exposure.
For the compound `COc1ccc(-c2c(C(F)(F)F)n[nH]c2-c2ccc(O)cc2O)cc1` [DPP-12], the “% FITC stained bacteria 2 xMIC” value was 29.11%.

Consider `COc1ccc(-c2[nH]nc(C(F)(F)F)c2-c2ccccc2)c(O)c1` [DPP-2], for which the “% FITC stained bacteria 2 xMIC” value is recorded as 63.56%.

As to `COc1ccc(-c2c(C(F)(F)F)n[nH]c2-c2ccc(OC)cc2O)cc1` [DPP-13], the “% FITC stained bacteria 2 xMIC” value amounted to 45.44%.

The data set is the same for the next values; noted with them: if considered to cause membrane damage to S. aureus.
In the case of `COc1ccc(-c2c(C(F)(F)F)n[nH]c2-c2ccc(O)cc2O)cc1` [DPP-12], the Membrane damage entry is reported as “MILD”.

On to `COc1ccc(-c2[nH]nc(C(F)(F)F)c2-c2ccccc2)c(O)c1` [DPP-2], for which the Membrane damage entry is listed as “YES”.

As for `COc1ccc(-c2c(C(F)(F)F)n[nH]c2-c2ccc(OC)cc2O)cc1` [DPP-13], the Membrane damage result was “YES”.

Tested on in the next data set: not listed separately
Put plainly: in vitro. It is filed as cell-based. The conditions noted are these: human. A digest of the protocol: (§2)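 Cytotoxicity was measured in HEK293 cells (5 × 10^4/well, precultured 24 h) exposed 24 h at 37 °C to compounds from a twofold dilution series made at 100–3.2 μg/mL in serum-free, phenol-red-free DMEM. Viability was read with 10% Alamar Blue (45 min, ex 541/em 590 nm) relative to 1% DMSO vehicle. Curves: four-parameter fit, bottom constrained 0.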
For the compound `COc1ccc(-c2c(C(F)(F)F)n[nH]c2-c2ccc(O)cc2O)cc1` [DPP-12], the cytotoxic concentration (CC50) at 24 h was 31.7 µg/mL and 90.7 µM.

Take `COc1ccc(-c2[nH]nc(C(F)(F)F)c2-c2ccccc2)c(O)c1` [DPP-2]: the CC50 at 24 h is 7.34 µg/mL and 21.9 µM.

In the case of `COc1ccc(-c2c(C(F)(F)F)n[nH]c2-c2ccc(OC)cc2O)cc1` [DPP-13], the CC50 at 24 h is 29.9 µg/mL and 82.1 µM.

A further data set deals with HEK293 cells. Put plainly: in vitro. It is filed as cell-based. The conditions noted are these: LC50/MIC (HEK293 / S. aureus). A digest of the protocol: as §2
With `COc1ccc(-c2c(C(F)(F)F)n[nH]c2-c2ccc(O)cc2O)cc1` [DPP-12], the “Selectivity Index” value turned out to be 2.54.

Turning to `COc1ccc(-c2[nH]nc(C(F)(F)F)c2-c2ccccc2)c(O)c1` [DPP-2], the “Selectivity Index” value was 0.60.

Consider `COc1ccc(-c2c(C(F)(F)F)n[nH]c2-c2ccc(OC)cc2O)cc1` [DPP-13], for which the “Selectivity Index” value came out at 2.39.

Another data set deals with Enterococcus faecium vanA (strain E1654). The experiment in a line: MIC (microdilution) against E. faecium. The class given is cell-based. The conditions noted are these: Enterococcus faecium, read-out: MIC E. faecium. The procedure, abridged:
as §1
On to `COc1ccc(-c2c(C(F)(F)F)n[nH]c2-c2ccc(O)cc2O)cc1` [DPP-12], for which the minimal inhibitory concentration (MIC) is 50 µg/mL (≈ 143 µM).

For the compound `COc1ccc(-c2[nH]nc(C(F)(F)F)c2-c2ccccc2)c(O)c1` [DPP-2], the minimum inhibitory concentration (MIC) was found to be 25 µg/mL (≈ 74.8 µM).

For `COc1ccc(-c2c(C(F)(F)F)n[nH]c2-c2ccc(OC)cc2O)cc1` [DPP-13], the MIC is 25 µg/mL (≈ 68.6 µM).

The same data set, now with this note: Table ST1.
Consider `COc1ccc(-c2c(C(F)(F)F)n[nH]c2-c2ccc(O)cc2O)cc1` [DPP-12], for which the “MIC E. faecium” value was 50 µg/mL (≈ 143 µM).

Turning to `COc1ccc(-c2[nH]nc(C(F)(F)F)c2-c2ccccc2)c(O)c1` [DPP-2], the “MIC E. faecium” value came to 25 µg/mL (≈ 74.8 µM).

For the compound `COc1ccc(-c2c(C(F)(F)F)n[nH]c2-c2ccc(OC)cc2O)cc1` [DPP-13], the “MIC E. faecium” value is 25 µg/mL (≈ 68.6 µM).

In the next data set the test system is Pseudomonas aeruginosa ATCC 27853. The experiment in a line: MIC (microdilution) against P. aeruginosa. It is filed as cell-based. The settings on record: Pseudomonas aeruginosa, ATCC27853, read-out: MIC P. aeruginosa. The procedure, abridged: as §1
`COc1ccc(-c2c(C(F)(F)F)n[nH]c2-c2ccc(O)cc2O)cc1` [DPP-12]: the minimal inhibitory concentration (MIC) was greater than 250 µg/mL.

`COc1ccc(-c2c(C(F)(F)F)n[nH]c2-c2ccc(OC)cc2O)cc1` [DPP-13]: the minimal inhibitory concentration (MIC) was greater than 250 µg/mL.

Staying with this data set, now noted: Pseudomonas aeruginosa, ATCC27853; Table 1; read-out: MIC P. aeruginosa.
As to `COc1ccc(-c2[nH]nc(C(F)(F)F)c2-c2ccccc2)c(O)c1` [DPP-2], the MIC was greater than 250 µg/mL.

Still in this data set, the particulars now being: Table ST1.
`COc1ccc(-c2c(C(F)(F)F)n[nH]c2-c2ccc(O)cc2O)cc1` [DPP-12]: the “MIC P. aeruginosa” value was greater than 250 µg/mL.

As for `COc1ccc(-c2[nH]nc(C(F)(F)F)c2-c2ccccc2)c(O)c1` [DPP-2], the “MIC P. aeruginosa” value was greater than 250 µg/mL.

Turning to `COc1ccc(-c2c(C(F)(F)F)n[nH]c2-c2ccc(OC)cc2O)cc1` [DPP-13], the “MIC P. aeruginosa” value is greater than 250 µg/mL.
